Common to all, as to experiment: Glycosidase inhibition, Table 6 (Laboratory 1)
What all share (type): biochemical

In assay [1] the target is T1, amyloglucosidase (from A. niger) (Aspergillus niger, UniProt P69328).
T1 construct: purchased Sigma-Aldrich Co
The source says:
(§1) The enzymes α-D-glucosidase (from yeast), β-D-glucosidases (from almond and bovine liver), α-D-galactosidase (from coffee beans), β-D-galactosidase (from bovine liver), α-D-mannosidase (from Jack bean), β-D-mannosidase (from snail), α-L-rhamnosidase (from Penicillium decumbens), α-L-fucosidase (from bovine kidney), trehalase (from porcine kidney), β-D-glucuronidases (from E. coli and bovine liver), amyloglucosidase (from A. niger), para-nitrophenyl glycosides, and various disaccharides were purchased from Sigma-Aldrich Co. (St. Louis, MO, USA).
(§2) Brush border membranes were prepared from the rat small intestine according to the method of Kessler et al., and were assayed at pH 6.8 for rat intestinal maltase using maltose. For rat intestinal maltase, porcine kidney trehalase, and A. niger amyloglucosidase activities, the reaction mixture contained maltose (25 mM) and the appropriate amount of enzyme, and the incubations were performed for 10–30 min at 37 °C. The reaction was stopped by heating at 100 °C for 3 min. After centrifugation (600× g; 10 min), the resulting reaction mixture was added to the Glucose CII-test Wako (Wako Pure Chemical Ind., Osaka, Japan). The absorbance at 505 nm was measured to determine the amount of the released D-glucose. Other glycosidase activities were determined using an appropriate para-nitrophenyl glycoside as substrate at the optimum pH of each enzyme. The reaction mixture contained the substrate (2 mM) and the appropriate amount of enzyme. The reaction was stopped by the addition of Na2CO3 (400 mM). The released para-nitrophenol was measured spectrometrically at 400 nm. All reactions run in methanol.

The test system of assay [2] is β-D-glucosidase (bovine liver). The settings on record: 1000 μM.
Source text: as §1, §2

Assay [3] has as its target T2, β-D-glucuronidase (E. coli) (Escherichia coli, UniProt P05804).
T2 construct: purchased Sigma-Aldrich Co
Source text: as §1, §2

Assay [4] has as its target T3, α-D-glucosidase (from yeast) (Saccharomyces cerevisiae, UniProt P53341).
T3 construct: purchased Sigma-Aldrich Co
Source text: as §1, §2

In assay [5] the test system is α-L-rhamnosidase (from Penicillium decumbens). Particulars: 1000 μM.
Source text: as §1, §2

Assay [6] addresses T4, α-D-mannosidase (from Jack bean) (Canavalia ensiformis, UniProt C0HJB3).
T4 construct: purchased Sigma-Aldrich Co
T4 sequence (C0HJB3 1-981): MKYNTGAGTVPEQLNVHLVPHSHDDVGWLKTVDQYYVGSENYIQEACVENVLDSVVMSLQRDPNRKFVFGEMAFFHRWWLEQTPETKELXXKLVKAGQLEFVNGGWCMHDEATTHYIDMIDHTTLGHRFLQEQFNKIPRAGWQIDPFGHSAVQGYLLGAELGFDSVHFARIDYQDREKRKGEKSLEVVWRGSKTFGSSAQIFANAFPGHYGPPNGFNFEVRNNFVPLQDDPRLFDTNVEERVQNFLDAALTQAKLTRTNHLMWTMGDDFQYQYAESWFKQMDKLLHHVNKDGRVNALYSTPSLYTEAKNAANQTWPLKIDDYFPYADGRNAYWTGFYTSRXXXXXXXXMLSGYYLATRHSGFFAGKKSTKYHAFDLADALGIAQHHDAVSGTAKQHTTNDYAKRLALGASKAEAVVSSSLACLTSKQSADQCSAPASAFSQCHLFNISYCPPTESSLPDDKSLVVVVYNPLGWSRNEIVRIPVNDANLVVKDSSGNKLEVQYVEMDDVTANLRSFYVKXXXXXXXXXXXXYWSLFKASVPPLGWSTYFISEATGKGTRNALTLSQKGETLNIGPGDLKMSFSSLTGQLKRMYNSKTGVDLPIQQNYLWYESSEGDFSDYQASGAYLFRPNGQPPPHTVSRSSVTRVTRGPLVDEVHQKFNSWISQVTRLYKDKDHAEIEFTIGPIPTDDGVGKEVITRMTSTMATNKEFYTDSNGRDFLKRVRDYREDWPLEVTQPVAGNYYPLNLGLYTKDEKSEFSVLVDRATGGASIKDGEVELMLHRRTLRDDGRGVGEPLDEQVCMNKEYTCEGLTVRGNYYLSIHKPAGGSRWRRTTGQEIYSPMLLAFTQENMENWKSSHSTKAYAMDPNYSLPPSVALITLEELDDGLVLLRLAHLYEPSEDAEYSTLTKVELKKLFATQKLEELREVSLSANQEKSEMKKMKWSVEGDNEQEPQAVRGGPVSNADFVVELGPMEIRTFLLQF
Source text: as §1, §2

In assay [7] the test system is β-D-mannosidase (from snail). The settings on record: 1000 μM.
Source text: as §1, §2

Assay [8] relates to α-D-glucosidase (rat intestinal maltase). The settings on record: 1000 μM.
Source text: as §1, §2

The target of assay [9] is T5, α-D-galactosidase (from coffee beans) (Coffea arabica, UniProt Q42656).
T5 construct: purchased Sigma-Aldrich Co
T5 sequence (Q42656 16-378): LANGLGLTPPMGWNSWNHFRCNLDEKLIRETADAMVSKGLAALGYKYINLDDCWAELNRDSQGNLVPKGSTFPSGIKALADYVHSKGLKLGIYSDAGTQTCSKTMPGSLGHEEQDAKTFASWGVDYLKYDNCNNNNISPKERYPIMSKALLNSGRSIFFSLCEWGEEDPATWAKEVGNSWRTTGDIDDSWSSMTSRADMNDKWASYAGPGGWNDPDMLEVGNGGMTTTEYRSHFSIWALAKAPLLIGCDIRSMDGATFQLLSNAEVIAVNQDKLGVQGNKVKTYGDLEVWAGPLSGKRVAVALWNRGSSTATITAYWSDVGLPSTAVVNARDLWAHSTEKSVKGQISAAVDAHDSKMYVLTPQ
Source text: as §1, §2

A further assay concerns β-D-glucosidase (almond). The settings on record: 1000 μM.
Source text: as §1, §2

For assay [10], the target named is T6, α,α-trehalase (porcine kidney) (Sus scrofa, UniProt I3LIR5).
T6 construct: purchased Sigma-Aldrich Co
T6 sequence (I3LIR5 24-583): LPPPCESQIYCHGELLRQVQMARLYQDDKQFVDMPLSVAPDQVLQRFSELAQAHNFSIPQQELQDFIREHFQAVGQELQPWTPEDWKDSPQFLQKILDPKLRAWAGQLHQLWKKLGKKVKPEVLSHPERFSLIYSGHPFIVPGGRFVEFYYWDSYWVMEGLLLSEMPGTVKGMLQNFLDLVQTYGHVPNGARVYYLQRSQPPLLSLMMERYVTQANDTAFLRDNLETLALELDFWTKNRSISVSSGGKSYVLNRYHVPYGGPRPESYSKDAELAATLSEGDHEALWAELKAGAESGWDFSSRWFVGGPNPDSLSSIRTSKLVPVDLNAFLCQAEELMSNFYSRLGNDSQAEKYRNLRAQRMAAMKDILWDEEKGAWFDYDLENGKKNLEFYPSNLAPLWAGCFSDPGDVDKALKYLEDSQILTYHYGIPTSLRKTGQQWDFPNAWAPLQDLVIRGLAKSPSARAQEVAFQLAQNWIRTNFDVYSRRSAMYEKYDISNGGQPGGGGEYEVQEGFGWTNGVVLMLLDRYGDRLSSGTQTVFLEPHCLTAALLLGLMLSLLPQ
Source text: as §1, §2

For assay [11], the system named is β-D-glucuronidase (bovine liver). Particulars: 1000 μM.
Source text: as §1, §2

2 molecules from article PMC12472391, “Borylated Five-Membered Ring Iminosugars: Synthesis, Spectroscopic Analysis, and Biological Evaluation for Glycosidase Inhibition and Anticancer Properties for Application in Boron Neutron Capture Therapy (BNCT)—Part 1” (Pharmaceuticals, 2025) can be followed below.

T2 sequence (P05804 whole entry): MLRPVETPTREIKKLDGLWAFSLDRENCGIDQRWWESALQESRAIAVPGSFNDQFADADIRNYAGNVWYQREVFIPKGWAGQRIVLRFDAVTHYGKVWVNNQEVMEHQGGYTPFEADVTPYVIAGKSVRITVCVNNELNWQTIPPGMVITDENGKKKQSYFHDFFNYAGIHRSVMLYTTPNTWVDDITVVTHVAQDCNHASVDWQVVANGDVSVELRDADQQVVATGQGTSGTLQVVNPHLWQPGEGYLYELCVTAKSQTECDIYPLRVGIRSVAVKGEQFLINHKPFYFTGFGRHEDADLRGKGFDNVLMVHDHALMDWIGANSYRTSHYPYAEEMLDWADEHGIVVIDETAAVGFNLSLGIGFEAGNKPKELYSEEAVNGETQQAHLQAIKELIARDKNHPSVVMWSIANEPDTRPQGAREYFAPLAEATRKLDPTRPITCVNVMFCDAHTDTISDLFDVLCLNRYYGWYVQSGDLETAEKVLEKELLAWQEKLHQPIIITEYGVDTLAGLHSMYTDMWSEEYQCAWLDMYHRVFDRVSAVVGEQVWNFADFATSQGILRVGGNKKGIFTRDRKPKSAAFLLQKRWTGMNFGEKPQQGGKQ
T1 sequence (P69328 25-640): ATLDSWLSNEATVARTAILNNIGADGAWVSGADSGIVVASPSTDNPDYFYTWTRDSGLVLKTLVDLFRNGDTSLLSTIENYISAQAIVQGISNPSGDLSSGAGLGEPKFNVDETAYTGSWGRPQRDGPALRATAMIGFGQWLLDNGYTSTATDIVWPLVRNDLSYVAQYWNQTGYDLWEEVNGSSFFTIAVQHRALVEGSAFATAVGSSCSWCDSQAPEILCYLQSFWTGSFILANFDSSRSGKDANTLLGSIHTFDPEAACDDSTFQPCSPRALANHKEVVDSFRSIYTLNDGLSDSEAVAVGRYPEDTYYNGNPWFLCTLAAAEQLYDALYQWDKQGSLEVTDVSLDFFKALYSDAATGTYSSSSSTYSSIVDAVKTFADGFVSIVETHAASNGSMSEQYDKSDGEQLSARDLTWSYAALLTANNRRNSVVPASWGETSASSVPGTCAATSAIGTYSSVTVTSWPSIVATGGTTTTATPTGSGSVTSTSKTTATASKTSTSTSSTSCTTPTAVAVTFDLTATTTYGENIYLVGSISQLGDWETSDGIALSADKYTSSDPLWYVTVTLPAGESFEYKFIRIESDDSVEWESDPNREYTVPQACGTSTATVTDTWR
T3 sequence (P53341 whole entry): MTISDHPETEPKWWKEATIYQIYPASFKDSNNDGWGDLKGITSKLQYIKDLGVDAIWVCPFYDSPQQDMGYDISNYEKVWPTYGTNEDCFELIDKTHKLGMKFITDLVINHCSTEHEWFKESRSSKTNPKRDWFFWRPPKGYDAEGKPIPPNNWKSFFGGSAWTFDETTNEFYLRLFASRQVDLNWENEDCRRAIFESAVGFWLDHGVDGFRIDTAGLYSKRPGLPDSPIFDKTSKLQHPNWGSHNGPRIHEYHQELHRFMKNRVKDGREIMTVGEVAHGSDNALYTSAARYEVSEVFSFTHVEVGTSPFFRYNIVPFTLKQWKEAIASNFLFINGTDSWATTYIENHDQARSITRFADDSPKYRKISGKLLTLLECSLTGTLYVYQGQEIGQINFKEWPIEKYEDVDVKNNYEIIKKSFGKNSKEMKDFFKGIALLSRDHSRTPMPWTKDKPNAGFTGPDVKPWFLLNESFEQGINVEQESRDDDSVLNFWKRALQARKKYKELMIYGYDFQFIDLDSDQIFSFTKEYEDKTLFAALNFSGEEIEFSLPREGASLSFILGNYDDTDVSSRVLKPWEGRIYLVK

Regarding `OC[C@H](O)[C@@H]1[C@H](O)[C@H](O)CN1Cc1ccc(B(O)O)cc1` [para 8, N-(4-Methylphenylboronic acid)-1,4-dideoxy-1,4-imino-L-gulitol], the inhibition at 1000 µM in assay [1] was found to be 3.6%; in assay [3] it was 22.9%; in assay [4], 5.6%; in assay [6], 0%; in assay [9] it was 1.4%; in assay [10], 0%. Also, in assay [2], the “β-D-Glucosidase Bovine Liver, inhibition % at 1000 μM” value is given as “^a NI ^b (27.1%)”. Further, in assay [5], the “α-L-Rhamnosidase P. decumbens, inhibition % at 1000 μM” value is “^a NI ^b (26.3%)”. The “β-D-Mannosidase Snail, inhibition % at 1000 μM” value in [7] is on record as “^a NI ^b (6.9%)”. The “α-D-Glucosidase Rat Intestinal Maltase, inhibition % at 1000 μM” value in assay [8] is recorded as “^a NI ^b (10.5%)”. Further, the “β-D-Glucosidase Almond, inhibition % at 1000 μM” value with β-D-glucosidase (almond) is recorded as “^a NI ^b (28%)”. Moreover, the “β-D-Glucuronidase Bovine Liver, inhibition % at 1000 μM” value in [11] is listed as “^a NI ^b (6.0%)”.
In the case of “borocaptate sodium [BSH, reference compound]”, the “Amyloglucosidase A. niger, inhibition % at 1000 μM” value in assay [1] (1000 μM) is “^a NI ^b (0%)”. The “β-D-Glucosidase Bovine Liver, inhibition % at 1000 μM” value in [2] was “^a NI ^b (15%)”. The “β-D-Glucuronidase E. coli, inhibition % at 1000 μM” value in assay [3] (1000 μM) is “^a NI ^b (6%)”. For the same molecule, the “α-D-Glucosidase Yeast, inhibition % at 1000 μM” value in assay [4] (1000 μM) is “^a NI ^b (6.9%)”. Moreover, the “α-L-Rhamnosidase P. decumbens, inhibition % at 1000 μM” value in [5] was “^a NI ^b (0.2%)”. In addition, the “α-D-Mannosidase Jack Bean, inhibition % at 1000 μM” value in [6] (1000 μM) was “^a NI ^b (7.9%)”. Also, the “β-D-Mannosidase Snail, inhibition % at 1000 μM” value in assay [7] is “^a NI ^b (19.2%)”. Besides, the “α-D-Glucosidase Rat Intestinal Maltase, inhibition % at 1000 μM” value in assay [8] is listed as “^a NI ^b (0%)”. In [9] (1000 μM), the “α-D-Galactosidase Coffee Beans, inhibition % at 1000 μM” value is on record as “^a NI ^b (12.3%)”. The “β-D-Glucosidase Almond, inhibition % at 1000 μM” value with β-D-glucosidase (almond) is “^a NI ^b (0%)”. Besides, the “α,α-Trehalase Porcine Kidney, inhibition % at 1000 μM” value in assay [10] (1000 μM) is reported as “^a NI ^b (4.2%)”. The “β-D-Glucuronidase Bovine Liver, inhibition % at 1000 μM” value in assay [11] is “^a NI ^b (19.6%)”.

Broadly, the inhibition is the drop in the measured response relative to a control, in per cent. Low readings indicate a response near the control, high ones a response far below the control.
